Our source for the GI50 and TGI values is PubChem BioAssay (NCI).

One may read the GI50 as the concentration giving 50% growth inhibition. Broadly, the TGI is the concentration giving total growth inhibition.

Among the test systems are K-562 leukemia; COLO 205 colon; SF-539 CNS; SF-268 CNS; EKVX NSCLC; KM12 colon; OVCAR-5 ovarian; HCT-15 colon; SF-295 CNS; SK-MEL-5 melanoma.
Assay in all cases: DTP human tumour cell line panel, 48 h

Molecules are shown by their SMILES.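 Method: 48-hour compound exposure of cells in 96-well plates, five concentrations, linear interpolation of endpoints. At the GI50, growth is halved. TGI: concentration producing complete growth inhibition.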

Turning to `C=CC/C(=C\COP(=O)(OCc1ccc([N+](=O)[O-])o1)N(C)CCCCCl)CC/C=C(\C)CCC=C(C)C` (stereo not given), the GI50 in the experiment on K-562 leukemia is 17.3 µM; in the experiment on COLO 205 colon, 20.4 µM; with SF-539 CNS, 22.5 µM; in the experiment on SF-268 CNS, 12 µM; in the experiment with EKVX NSCLC, 18.9 µM; with KM12 colon, 9.94 µM. In addition, the results for the GI50 with OVCAR-5 ovarian, in the experiment with HCT-15 colon and with SF-295 CNS were 15.7 µM, 12.8 µM and 0.0171 µM, respectively. Also, the TGI in the experiment with K-562 leukemia was > 100 µM; in the experiment on COLO 205 colon, 43.2 µM; in the experiment with SF-539 CNS, 39.4 µM; in the experiment with SF-268 CNS, 29 µM; in the experiment on EKVX NSCLC, 35.7 µM; in the experiment with KM12 colon it was > 100 µM. Also, the concentration for total growth inhibition (TGI) with OVCAR-5 ovarian came out at 29 µM; in the experiment on HCT-15 colon, 30.4 µM; in the experiment on SF-295 CNS it was 3.21 µM.

`CCOC(=O)c1c(C)nc2c(c1N)CC(=O)N2CCc1ccccc1`: the GI50 in the experiment with K-562 leukemia was 0.424 µM; in the experiment with COLO 205 colon it was 0.518 µM; in the experiment with SF-539 CNS, 0.324 µM; in the experiment on SF-268 CNS, 0.477 µM; in the experiment with SK-MEL-5 melanoma, 0.939 µM; with EKVX NSCLC, 6.06 µM. In addition, the 50% growth inhibitory concentration (GI50) is 0.35 µM in the experiment with KM12 colon, 8.2 µM in the experiment with OVCAR-5 ovarian, 0.485 µM in the experiment on HCT-15 colon and 2.16 µM in the experiment on SF-295 CNS. The concentration for total growth inhibition (TGI) in the experiment on K-562 leukemia was > 100 µM; in the experiment with COLO 205 colon, 13.6 µM; with SF-539 CNS, 11.9 µM; with SF-268 CNS it was 19 µM; in the experiment on SK-MEL-5 melanoma, 13.6 µM; in the experiment on EKVX NSCLC, 68.8 µM. Moreover, the TGI with KM12 colon is 15.5 µM; in the experiment on OVCAR-5 ovarian, 24.9 µM; in the experiment with HCT-15 colon it was 13.6 µM; with SF-295 CNS, 33.1 µM.

On to `Cc1ccc(C(SCC(N)C(=O)O)(c2ccccc2)c2ccccc2)cc1` (stereo not given), for which the GI50 with K-562 leukemia is 0.0485 µM; in the experiment on COLO 205 colon, 0.098 µM; in the experiment on SF-539 CNS it was 0.033 µM; in the experiment on SF-268 CNS it was 0.0612 µM; with SK-MEL-5 melanoma, 0.0452 µM; in the experiment with EKVX NSCLC it was 0.21 µM. The GI50 was 0.0983 µM in the experiment with KM12 colon, 2.41 µM in the experiment on OVCAR-5 ovarian, 0.218 µM in the experiment on HCT-15 colon and 0.0465 µM in the experiment with SF-295 CNS. The total growth inhibition concentration (TGI) with K-562 leukemia is > 100 µM; in the experiment with COLO 205 colon it was 0.95 µM; in the experiment on SF-539 CNS, 1.08 µM; in the experiment on SF-268 CNS it was 31.9 µM; in the experiment with SK-MEL-5 melanoma it was 19.6 µM; with EKVX NSCLC it was > 100 µM. For the same molecule, the concentration for total growth inhibition (TGI) with KM12 colon is 5.98 µM; in the experiment on OVCAR-5 ovarian, > 100 µM; in the experiment with HCT-15 colon it was > 49.4 µM; in the experiment on SF-295 CNS, > 100 µM.

As to `COc1ccc(-c2cc(-c3cc(Cl)cc(Br)c3O)[nH]c(=O)n2)cc1`, the concentration for total growth inhibition (TGI) in the experiment with K-562 leukemia is 41.7 µM; in the experiment with COLO 205 colon it was 29 µM; in the experiment with SF-539 CNS, 28.8 µM; in the experiment on SF-268 CNS, 50 µM; with EKVX NSCLC, 27.3 µM; with KM12 colon it was 41.3 µM. In the experiment on SF-295 CNS, the TGI was found to be 32.7 µM.

Turning to `O=[N+]([O-])c1ccccc1C=NC12CC3CC(CC(C3)C1)C2`, the TGI in the experiment with K-562 leukemia, in the experiment with COLO 205 colon, in the experiment with SF-539 CNS, in the experiment on SF-268 CNS, with SK-MEL-5 melanoma and in the experiment on EKVX NSCLC was > 100 µM throughout. Further, the TGI in the experiment on KM12 colon, in the experiment with OVCAR-5 ovarian, with HCT-15 colon and in the experiment on SF-295 CNS was > 100 µM each time.

Consider `CCCCN[C@H]1C2C3CC4C5CC(C42)C1(C)C53` (stereo not given in full), for which the concentration for total growth inhibition (TGI) in the experiment with K-562 leukemia, with COLO 205 colon, with SF-539 CNS, in the experiment on SF-268 CNS, with SK-MEL-5 melanoma and in the experiment with EKVX NSCLC was > 100 µM each time. Also, the TGI in the experiment on KM12 colon, in the experiment on OVCAR-5 ovarian, in the experiment on HCT-15 colon and with SF-295 CNS was > 100 µM throughout.

Take `Cc1cnc2c(c1)C(=O)C1=C(OC(C)(C)CC1O)C2=O` (stereo not given): the total growth inhibition concentration (TGI) was 46.4 µM in the experiment on K-562 leukemia; 32.4 µM in the experiment on COLO 205 colon; 31.4 µM in the experiment with SF-539 CNS; 37.2 µM with SF-268 CNS; 26.9 µM in the experiment with SK-MEL-5 melanoma; 36.4 µM with EKVX NSCLC. In addition, the TGI is > 100 µM in the experiment with KM12 colon, > 100 µM in the experiment with OVCAR-5 ovarian, 36.2 µM with HCT-15 colon and 26.6 µM with SF-295 CNS.

For the molecule `N=C(N)c1ccc(NCCOCCNc2ccc(C(=N)N)cc2)cc1`, the GI50 in the experiment with K-562 leukemia was 21.3 µM; in the experiment with COLO 205 colon, 14.9 µM; with SF-539 CNS, 36.8 µM; with SF-268 CNS it was 45.3 µM; in the experiment with SK-MEL-5 melanoma, 25.5 µM; with EKVX NSCLC it was 21.7 µM. The GI50 with KM12 colon was 43.8 µM; in the experiment on OVCAR-5 ovarian, > 100 µM; with HCT-15 colon, 30.2 µM; in the experiment on SF-295 CNS, 43.3 µM. The TGI in the experiment with K-562 leukemia is > 100 µM; in the experiment on COLO 205 colon, 39.5 µM; in the experiment with SF-539 CNS, > 100 µM; in the experiment on SF-268 CNS it was > 100 µM; in the experiment with SK-MEL-5 melanoma, 89.4 µM; in the experiment with EKVX NSCLC, > 100 µM. For the same molecule, the TGI in the experiment on KM12 colon, in the experiment with OVCAR-5 ovarian, with HCT-15 colon and in the experiment on SF-295 CNS was > 100 µM each time.

For `COc1cc(C2C3=C(COC3=O)Nc3c2ccc2c3CCCC2)cc2c1OCO2` (stereo not given), the 50% growth inhibitory concentration (GI50) with K-562 leukemia is 0.0351 µM; in the experiment on COLO 205 colon, 0.0322 µM; in the experiment on SF-539 CNS, 0.0331 µM; with SF-268 CNS, 0.107 µM; in the experiment with SK-MEL-5 melanoma it was 0.0381 µM; with EKVX NSCLC it was 0.0908 µM. In addition, the concentration for 50% growth inhibition (GI50) in the experiment with KM12 colon is 0.0356 µM; in the experiment with OVCAR-5 ovarian, 0.0897 µM; in the experiment on HCT-15 colon, 0.0432 µM; in the experiment on SF-295 CNS, 0.0323 µM. For the same molecule, the concentration for total growth inhibition (TGI) with K-562 leukemia is > 100 µM; in the experiment with COLO 205 colon, 0.0942 µM; with SF-539 CNS, 13.4 µM; with SF-268 CNS it was 19.6 µM; in the experiment on SK-MEL-5 melanoma, 0.199 µM; in the experiment on EKVX NSCLC, > 100 µM. The TGI was 0.412 µM with KM12 colon, > 100 µM in the experiment with OVCAR-5 ovarian, > 100 µM with HCT-15 colon and 35.5 µM in the experiment on SF-295 CNS.
